{
  "source": "paper PMC6299835",
  "about": "(Toxicon : official journal of the International Society on …, 2018)",
  "key": {"MrgprC11": {"biological_target": "T1, MrgprC11 (Mus musculus, UniProt Q8CIP3)", "T1 sequence (Q8CIP3 1-322)": "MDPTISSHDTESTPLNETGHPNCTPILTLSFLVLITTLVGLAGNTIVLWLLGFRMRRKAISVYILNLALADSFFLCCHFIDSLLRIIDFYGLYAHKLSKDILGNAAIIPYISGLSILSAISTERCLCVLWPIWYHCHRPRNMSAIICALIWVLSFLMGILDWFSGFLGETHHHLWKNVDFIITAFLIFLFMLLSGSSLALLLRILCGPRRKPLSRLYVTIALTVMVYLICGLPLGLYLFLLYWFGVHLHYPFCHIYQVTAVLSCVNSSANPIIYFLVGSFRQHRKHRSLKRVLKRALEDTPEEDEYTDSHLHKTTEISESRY", "type": "cell-based"}, "[1]": {"test_system": "hMrgprX1;Mrgpr-cluster∆−/− transgenic mouse", "conditions": "in vivo"}, "mice": {"test_system": "mice", "conditions": "mouse, in vivo; cited from earlier work"}, "human MrgprX1 (hMrgprX1)": {"biological_target": "human MrgprX1 (hMrgprX1) (Homo sapiens, UniProt Q96LB2)", "sequence (Q96LB2 whole entry, looked up)": "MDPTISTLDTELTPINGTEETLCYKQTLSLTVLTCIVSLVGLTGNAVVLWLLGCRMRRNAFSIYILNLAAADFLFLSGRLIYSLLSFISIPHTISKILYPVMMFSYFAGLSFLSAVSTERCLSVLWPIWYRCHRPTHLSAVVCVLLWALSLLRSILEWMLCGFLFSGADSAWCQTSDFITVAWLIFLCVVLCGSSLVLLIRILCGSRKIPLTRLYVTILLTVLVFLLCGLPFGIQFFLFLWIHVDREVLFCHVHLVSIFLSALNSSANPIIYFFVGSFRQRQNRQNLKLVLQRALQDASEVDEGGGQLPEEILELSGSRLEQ", "experiment": "cell-based", "type": "cell-based"}},
  "note": "“Also recorded” adds a separate entry of the source. No end group written: not given here.",
  "data": [
    {"substance": "HSGFLLAWSGPRNRFVRF-NH2 [CNF-Vc1]", "values": [
      {"measurement": "Activation of MrgprC11", "setting": "MrgprC11", "value": "activates"},
      {"measurement": "Itch-related scratching after intradermal cheek injection of peptide", "setting": "[1]", "value": "induces significant scratching"},
      {"measurement": "Behaviour of mice after intracranial injection", "setting": "mice", "value": "renders mice unable to move; also recorded: hypoactive behavior"},
      {"measurement": "Activation of hMrgprX1", "setting": "human MrgprX1 (hMrgprX1)", "value": "activates"},
      {"measurement": "EC50", "setting": "human MrgprX1 (hMrgprX1)", "value": 1800, "unit": "nM"}
    ]}
  ]
}
